How the values were obtained:
NMA1982 [1] = biological target: T1, NMA1982 (Neisseria meningitidis, UniProt A1KVD0)
T1 construct: gene NMC1647

NMA1982 [2] = biological target: T1, NMA1982; remark: listed apart in the source

T1 sequence (A1KVD0 entry or part of it): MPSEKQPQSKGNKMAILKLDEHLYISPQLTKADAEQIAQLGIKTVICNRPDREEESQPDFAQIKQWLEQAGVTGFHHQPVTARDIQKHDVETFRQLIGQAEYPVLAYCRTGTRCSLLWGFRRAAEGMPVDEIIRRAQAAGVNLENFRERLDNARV

SMILES | Km (NMA1982 [1]) [µM] | IC50 (NMA1982 [2]) [µM]
Cc1cc(=O)oc2c(F)c(OP(=O)(O)O)c(F)cc12 [DiFMUP] | 35 | 
[O]=[V]([OH])([OH])[OH] [sodium orthovanadate] |  | 161

Source: article PMC10716126, “Enzyme mechanistic studies of NMA1982, a protein tyrosine phosphatase and potential virulence factor in Neisseria meningitidis” (Scientific Reports, 2023)
